Like-named read-outs stand apart in the source and are kept apart here.
How the values were obtained:
[1] = Plasma exposure after oral gavage in mice, LC-MS/MS; assay type: in vivo; conditions: mouse, in vivo, po, 25 mg/kg
Description: For a number of representative compounds in Table 5, their plasma exposures with oral administration in mice via oral gavage were determined by LC-MS/MS, with the data shown in Table 9.

[2] = tested on: MOLM-13; assay: Cell growth inhibition, 4-day proliferation assay, MOLM-13; assay type: cell-based; conditions: Homo sapiens
[3] = tested on: MDA-MB-231; assay: Cell growth inhibition, 4-day proliferation assay, MDA-MB-231; assay type: cell-based; conditions: Homo sapiens
Outline: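 Cells seeded at 3,000-10,000/well, treated with serially diluted compounds 4 days at 37 °C, 5% CO2. Viability by WST-8 (10% v/v, 1-2 h, A450); readings normalized to DMSO-treated cells, IC50 by four-parameter nonlinear regression.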

[4] = target: T1, recombinant BRD4 BD2 (Homo sapiens, UniProt O60885); assay: Competitive fluorescence-polarization (FP) binding assay, BRD4 BD2
T1 construct: for recombinant BRD4 BD1 and BRD4 BD2 proteins
Description: Fluorescence Polarization (FP) competitive binding studies were carried out using a FAM labeled fluorescent probe, see, e.g., Cpd. No. 350 of US 2014/0256706, to determine binding affinities of representative Compounds of the Disclosure for recombinant BRD4 BD1 and BRD4 BD2 proteins. Equilibrium dissociation constants (Kd) values of the fluorescent probe to BRD4 BD1 and BD2 proteins were determined from protein saturation experiments by monitoring the total fluorescence polarization of mixtures composed with the fluorescent probe at a fixed concentration and proteins with increasing concentrations up to full saturation. Serial dilutions of testing proteins were mixed with the fluorescent probe to a final volume of 200 μl in the assay buffer (100 mM phosphate buffer, pH=6.5, 0.01% Triton X-100 (Sigma, 282103) being added right before assays). Final fluorescent probe concentration was 1.5 nM for both proteins. Plates were incubated at room temperature for 30 minutes with gentle shaking to assure equilibrium. FP values in millipolarization units (mP) were measured using the Infinite M-1000 plate reader (Tecan U.S., Research Triangle Park, N.C.) in Microfluor 1 96-well, black, round-bottom plates (Thermo Scientific, Waltham, Mass.) at an excitation wavelength of 485 nm and an emission wavelength of 530 nm. Kd values of the fluorescent probe, which were calculated by fitting the sigmoidal dose-dependent FP increases as a function of protein concentrations using Graphpad Prism 6.0 software (Graphpad Software, San Diego, Calif.), are 5.5 and 3.0 nM to BDR4 BD1 and 2, respectively.
The IC50 and Ki values of compounds were determined in a competitive binding experiment. See US 2014/0256706. Mixtures of 10 μl of the tested compounds in assay buffer with 40% Ethylene Glycol and 190 μl of preincubated protein/probe complex solution in the assay buffer (100 mM potassium phosphate, pH 6.5, 0.01% Triton X-100) were added into assay plates which were incubated at room temperature for 30 minutes with gentle shaking. Final concentrations of proteins were 10 and 6 nM in assays for BRD4 BD1 and BD2, respectively. Final probe concentration is 1.5 nM in both assays. Negative controls containing protein/probe complex only (equivalent to 0% inhibition), and positive controls containing only free probes (equivalent to 100% inhibition), were included in each assay plate. FP values were measured as described above. IC50 values were determined by nonlinear regression fitting of the competition curves. Instead of being calculated from IC50 values as described before. Ki values of competitive inhibitors were obtained directly by nonlinear regression fitting as well, based upon the Kd values of the probe to different proteins, and concentrations of the proteins and probes in the competitive assays (US 2014/0256706; Wang, FEBS Lett. 360:111 (1995); Zhang et al., Analytical Biochemistry, 331:138 (2004)).
Representative compounds in Table 5 were evaluated for their binding affinities to BRD4 BD1 and BD2 proteins using the Competitive Fluorescence-Polarization (FP) Assays described in Example 6, with the data included in Table 6.

[5] = MOLM-13, WST-8 assay, Table 7, read-out: Cell growth inhibition (IC50 (nM)) MOLM-13
[6] = MDA-MB-231, WST-8 assay, Table 7, read-out: Cell growth inhibition (IC50 (nM)) MDA-MB-231
[7] = MDA-MB-231, 96 h, read-out: Cell IC50 (nM) MDA-MB-231
[8] = MOLM-13, 96 h, read-out: Cell IC50 (nM) MOLM13

For `Cc1c(C#CC2CCOCC2)sc2c1C(c1ccc(Cl)cc1)=N[C@@H](CC(=O)N1CCOCC1)c1nnc(C)n1-2` [Compound 154, (S)-2-(4-(4-chlorophenyl)-3,9-dimethyl-2-((tetrahydro-2H-pyran-4-yl)ethynyl)-6H-thieno[3,2-f][1,2,4]triazolo[4,3-a][1,4]diazepin-6-yl)-1-morpholinoethan-1-one], the concentration at 1 h [1] was 1.03 µg/mL, the concentration at 3 h [1] was 0.372 µg/mL and the concentration at 6 h [1] was 0.22 µg/mL. The IC50 [2, 5] was 38.8 nM.
Work on `Cc1c(C#CC2CCOCC2)sc2c1C(c1ccc(Cl)cc1)=N[C@@H](CC(=O)Nc1ccc(O)cc1)c1nnc(C)n1-2` [Compound 155, (S)-2-(4-(4-chlorophenyl)-3,9-dimethyl-2-((tetrahydro-2H-pyran-4-yl)ethynyl)-6H-thieno[3,2-f][1,2,4]triazolo[4,3-a][1,4]diazepin-6-yl)-N-(4-hydroxyphenyl)acetamide] yielded a concentration at 1 h [1] of 0.832 µg/mL, a concentration at 3 h [1] of 0.127 µg/mL and a concentration at 6 h [1] of 0.042 µg/mL. It also gave an IC50 [2, 5] of 69.3 nM.
`CCNC(=O)C[C@@H]1N=C(c2ccc(Cl)cc2)c2c(sc(C#Cc3cnn(C)c3)c2C)-n2c(C)nnc21` [Compound 167, (S)-2-(4-(4-chlorophenyl)-3,9-dimethyl-2-((1-methyl-1H-pyrazol-4-yl)ethynyl)-6H-thieno[3,2-f][1,2,4]triazolo[4,3-a][1,4]diazepin-6-yl)-N-ethylacetamide] gave a concentration at 1 h [1] of 0.012 µg/mL, a concentration at 3 h [1] of under 0.001 µg/mL and a concentration at 6 h [1] of under 0.001 µg/mL. For the same compound, the IC50 [3, 6] was 129 ± 40 nM and the IC50 [2, 5] was 26.7 nM.
For `Cc1c(C#CC2CCOCC2)sc2c1C(c1ccc(Cl)cc1)=N[C@@H](CC(N)=O)c1nnc(C)n1-2` [Compound 152, (S)-2-(4-(4-chlorophenyl)-3,9-dimethyl-2-((tetrahydro-2H-pyran-4-yl)ethynyl)-6H-thieno[3,2-f][1,2,4]triazolo[4,3-a][1,4]diazepin-6-yl)acetamide], the concentration at 1 h [1] was 1.12 µg/mL, the concentration at 3 h [1] was 0.472 µg/mL and the concentration at 6 h [1] was 0.231 µg/mL. It also gave an IC50 [2, 5] of 30 nM.
`Cc1c(C#CC2CCOCC2)sc2c1C(c1ccc(Cl)cc1)=N[C@@H](CC(=O)N1CC(F)(F)C1)c1nnc(C)n1-2` [Compound 156, (S)-2-(4-(4-chlorophenyl)-3,9-dimethyl-2-((tetrahydro-2H-pyran-4-yl)ethynyl)-6H-thieno[3,2-f][1,2,4]triazolo[4,3-a][1,4]diazepin-6-yl)-1-(3,3-difluoroazetidin-1-yl)ethan-1-one] gave a concentration at 1 h [1] of 0.805 µg/mL, a concentration at 3 h [1] of 0.473 µg/mL and a concentration at 6 h [1] of 0.226 µg/mL. It also gave an IC50 [2, 5] of 36.1 nM.
For `CCNC(=O)C[C@@H]1N=C(c2ccc(Cl)cc2)c2c(sc(C#Cc3cncn3C)c2C)-n2c(C)nnc21` [Compound 169, (S)-2-(4-(4-chlorophenyl)-3,9-dimethyl-2-((1-methyl-1H-imidazol-5-yl)ethynyl)-6H-thieno[3,2-f][1,2,4]triazolo[4,3-a][1,4]diazepin-6-yl)-N-ethylacetamide], the concentration at 1 h [1] was 0.611 µg/mL, the concentration at 3 h [1] was 0.029 µg/mL and the concentration at 6 h [1] was 0.005 µg/mL. It also gave an IC50 [3, 6] of 203 ± 57 nM and an IC50 [2, 5] of 63.9 nM.
For `Cc1c(C#Cc2cnn(C)c2)sc2c1C(c1ccc(Cl)cc1)=N[C@@H](CC(N)=O)c1nnc(C)n1-2` [Compound 166, (S)-2-(4-(4-chlorophenyl)-3,9-dimethyl-2-((1-methyl-1H-pyrazol-4-yl)ethynyl)-6H-thieno[3,2-f][1,2,4]triazolo[4,3-a][1,4]diazepin-6-yl)acetamide], the concentration at 1 h [1] was 0.055 µg/mL, the concentration at 3 h [1] was 0.03 µg/mL and the concentration at 6 h [1] was under 0.001 µg/mL. It also gave an IC50 [3, 6] of 214 ± 42.2 nM and an IC50 [2, 5] of 28.9 nM.
With `Cc1nnc(C[C@@H]2N=C(c3ccc(Cl)cc3)c3c(sc(C#CC4(C)COC4)c3C)-n3c(C)nnc32)o1` [Compound 149, (S)-2-((4-(4-chlorophenyl)-3,9-dimethyl-2-((3-methyloxetan-3-yl)ethynyl)-6H-thieno[3,2-f][1,2,4]triazolo[4,3-a][1,4]diazepin-6-yl)methyl)-5-methyl-1,3,4-oxadiazole] the concentration at 1 h [1] was 13 µg/mL, the concentration at 3 h [1] was 12.8 µg/mL and the concentration at 6 h [1] was 6.64 µg/mL.
For `Cc1c(C#Cc2cncn2C)sc2c1C(c1ccc(Cl)cc1)=N[C@@H](CC(N)=O)c1nnc(C)n1-2` [Compound 168, (S)-2-(4-(4-chlorophenyl)-3,9-dimethyl-2-((1-methyl-1H-imidazol-5-yl)ethynyl)-6H-thieno[3,2-f][1,2,4]triazolo[4,3-a][1,4]diazepin-6-yl)acetamide], the concentration at 1 h [1] was 0.08 µg/mL, the concentration at 3 h [1] was 0.022 µg/mL and the concentration at 6 h [1] was 0.02 µg/mL. The IC50 [3, 6] was 716 ± 162 nM and the IC50 [2, 5] was 145 nM.
In the case of `Cc1c(C#Cc2cccnc2)sc2c1C(c1ccc(Cl)cc1)=N[C@@H](C)c1nnc(C)n1-2` [Cpd. No. 4, (S)-4-(4-chlorophenyl)-3,6,9-trimethyl-2-(pyridin-3-ylethynyl)-6H-thieno[3,2-f][1,2,4]triazolo[4,3-a][1,4]diazepine], the IC50 [4] is reported as 0.0125 µM, the IC50 [3, 7] is reported as 2.63 ± 0.6 nM and the IC50 [2, 8] is reported as 10.5 ± 0.24 nM.
For `Cc1c(C#Cc2ccncc2)sc2c1C(c1ccc(Cl)cc1)=NCc1nnc(C)n1-2` [Cpd. No. 7, 4-(4-chlorophenyl)-3,9-dimethyl-2-(pyridin-4-ylethynyl)-6H-thieno[3,2-f][1,2,4]triazolo[4,3-a][1,4]diazepine], the IC50 [4] was 1.67 µM, the IC50 [3, 7] was 660 ± 83.6 nM and the IC50 [2, 8] was 144 ± 16.3 nM.
Compound `Cc1nnc(C[C@@H]2N=C(c3ccc(Cl)cc3)c3c(sc(C#CC4CCOCC4)c3C)-n3c(C)nnc32)s1` [Compound 151, (S)-4-(4-chlorophenyl)-3,9-dimethyl-6-((5-methyl-1,3,4-thiadiazol-2-yl)methyl)-2-((tetrahydro-2H-pyran-4-yl)ethynyl)-6H-thieno[3,2-f][1,2,4]triazolo[4,3-a][1,4]diazepine] has a concentration at 1 h [1] of 0.451 µg/mL, a concentration at 3 h [1] of 0.299 µg/mL and a concentration at 6 h [1] of 0.115 µg/mL. For the same compound, the IC50 [2, 5] was 81.6 nM.
`Cc1c(C#Cc2ccnn2C)sc2c1C(c1ccc(Cl)cc1)=N[C@@H](C)c1nnc(C)n1-2` [Cpd. No. 17, (S)-4-(4-chlorophenyl)-3,6,9-trimethyl-2-((1-methyl-1H-pyrazol-5-yl)ethynyl)-6H-thieno[3,2-f][1,2,4]triazolo[4,3-a][1,4]diazepine] gave an IC50 [4] of 0.0144 µM, an IC50 [3, 7] of 14.6 nM and an IC50 [2, 8] of 23.7 nM.
Work on `Cc1c(C#Cc2ccccn2)sc2c1C(c1ccc(Cl)cc1)=NCc1nnc(C)n1-2` [Cpd. No. 1, 4-(4-chlorophenyl)-3,9-dimethyl-2-(pyridin-2-ylethynyl)-6H-thieno[3,2-f][1,2,4]triazolo[4,3-a][1,4]diazepine] yielded an IC50 [4] of 0.178 µM, an IC50 [3, 7] of 272 nM and an IC50 [2, 8] of 206 ± 21.9 nM.
`Cc1c(C#Cc2cncnc2)sc2c1C(c1ccc(Cl)cc1)=NCc1nnc(C)n1-2` [Cpd. No. 5, 4-(4-chlorophenyl)-3,9-dimethyl-2-(pyrimidin-5-ylethynyl)-6H-thieno[3,2-f][1,2,4]triazolo[4,3-a][1,4]diazepine] gave an IC50 [4] of 0.305 µM, an IC50 [3, 7] of 214 ± 35.2 nM and an IC50 [2, 8] of 176 ± 25.5 nM.
With `COCC#Cc1sc2c(c1C)C(c1ccc(Cl)cc1)=N[C@@H](C)c1nnc(C)n1-2` [Cpd. No. 15, (S)-4-(4-chlorophenyl)-2-(3-methoxyprop-1-yn-1-yl)-3,6,9-trimethyl-6H-thieno[3,2-f][1,2,4]triazolo[4,3-a][1,4]diazepine] the IC50 [4] was 0.0113 µM, the IC50 [3, 7] was 51.1 nM and the IC50 [2, 8] was 25.6 nM.
`Cc1c(C#Cc2ccncc2)sc2c1C(c1ccc(Cl)cc1)=N[C@@H](C)c1nnc(C)n1-2` [Cpd. No. 8, (S)-4-(4-chlorophenyl)-3,6,9-trimethyl-2-(pyridin-4-ylethynyl)-6H-thieno[3,2-f][1,2,4]triazolo[4,3-a][1,4]diazepine] gave an IC50 [4] of 0.0104 µM, an IC50 [3, 7] of 64.5 ± 22.7 nM and an IC50 [2, 8] of 13.5 ± 0.8 nM.

— US11046709B2, “Fused 1,4-diazepines as BET bromodomain inhibitors” (THE REGENTS OF THE UNIVERSITY OF MICHIGAN, priority 2017, dated 2021)
